Test results taken from patent US10632106B2, “Methods of cancer treatment with 2-(1′H-Indole-3′-carbonyl)-thiazole-4-carboxylic acid methyl ester” (Ariagen, Inc., priority 2009, dated 2020).

Test: Effects of oral water administration on ITE dosed mice
Assay type: in vivo
Set-up: key to feces appearance: Moderate; Dry
Conditions: for feces appearance (visual): after one week of dosing
Experimental: Oral injection of water was initiated at the same day i.p. administration of ITE was started. Daily oral gavage at 10 or 20 ml/kg was performed immediately following daily i.p. injection of ITE or DMSO continuously for the entire duration of the study. Both oral and i.p. injection were accidentally skipped at day 14 due to a mistake of the experimenter(s) and all of the other dosing were executed normally. Bodyweights (individual), food consumed (in group), feces weights (in group), and feces appearance (in group) were recorded every two days. Death of animal(s) and approximate cause of death etc. were also recorded.

[1] = ITE-H 300 mg/kg i.p. + Water-0, day 4
[2] = ITE-H 300 mg/kg i.p. + Water-0, day 6
[3] = ITE-H 300 mg/kg i.p. + Water-0, day 8
[4] = ITE-H 300 mg/kg i.p. + Water-0, day 10
[5] = ITE-H 300 mg/kg i.p. + Water-0, day 12
[6] = ITE-H 300 mg/kg i.p. + Water-0, day 14
[7] = ITE-H 300 mg/kg i.p. + Water-0, day 18 (line r16)
[8] = ITE-H 300 mg/kg i.p. + Water-0, day 18 (line r17)
[9] = ITE-H 300 mg/kg i.p. + Water-0, day 20
[10] = ITE-H 300 mg/kg i.p. + Water-0, day 22
[11] = ITE-H 300 mg/kg i.p. + Water-0, day 24
[12] = ITE-H 300 mg/kg i.p. + Water-0, day 26
[13] = ITE-H 300 mg/kg i.p. + Water-0, day 28
[14] = ITE-H 300 mg/kg i.p. + Water-0, day 30
[15] = ITE-H 300 mg/kg i.p. + Water-0, day 32
[16] = ITE-H 300 mg/kg i.p. + Water-0, day 34
[17] = ITE-H 300 mg/kg i.p. + Water-0, day 36
[18] = ITE-H 300 mg/kg i.p. + Water-H 20 ml/kg, day 4
[19] = ITE-H 300 mg/kg i.p. + Water-H 20 ml/kg, day 6
[20] = ITE-H 300 mg/kg i.p. + Water-H 20 ml/kg, day 8
[21] = ITE-H 300 mg/kg i.p. + Water-H 20 ml/kg, day 10
[22] = ITE-H 300 mg/kg i.p. + Water-H 20 ml/kg, day 12
[23] = ITE-H 300 mg/kg i.p. + Water-H 20 ml/kg, day 14
[24] = ITE-H 300 mg/kg i.p. + Water-H 20 ml/kg, day 18 (line r16)
[25] = ITE-H 300 mg/kg i.p. + Water-H 20 ml/kg, day 18 (line r17)
[26] = ITE-H 300 mg/kg i.p. + Water-H 20 ml/kg, day 20
[27] = ITE-H 300 mg/kg i.p. + Water-H 20 ml/kg, day 22
[28] = ITE-H 300 mg/kg i.p. + Water-H 20 ml/kg, day 24
[29] = ITE-H 300 mg/kg i.p. + Water-H 20 ml/kg, day 26
[30] = ITE-H 300 mg/kg i.p. + Water-H 20 ml/kg, day 28
[31] = ITE-H 300 mg/kg i.p. + Water-H 20 ml/kg, day 30
[32] = ITE-H 300 mg/kg i.p. + Water-H 20 ml/kg, day 32
[33] = ITE-H 300 mg/kg i.p. + Water-H 20 ml/kg, day 34
[34] = ITE-H 300 mg/kg i.p. + Water-L 10 ml/kg, day 4
[35] = ITE-H 300 mg/kg i.p. + Water-L 10 ml/kg, day 6
[36] = ITE-H 300 mg/kg i.p. + Water-L 10 ml/kg, day 8
[37] = ITE-H 300 mg/kg i.p. + Water-L 10 ml/kg, day 10
[38] = ITE-H 300 mg/kg i.p. + Water-L 10 ml/kg, day 12
[39] = ITE-H 300 mg/kg i.p. + Water-L 10 ml/kg, day 14
[40] = ITE-H 300 mg/kg i.p. + Water-L 10 ml/kg, day 18 (line r16)
[41] = ITE-H 300 mg/kg i.p. + Water-L 10 ml/kg, day 18 (line r17)
[42] = ITE-H 300 mg/kg i.p. + Water-L 10 ml/kg, day 20
[43] = ITE-H 300 mg/kg i.p. + Water-L 10 ml/kg, day 22
[44] = ITE-H 300 mg/kg i.p. + Water-L 10 ml/kg, day 24
[45] = ITE-H 300 mg/kg i.p. + Water-L 10 ml/kg, day 26
[46] = ITE-H 300 mg/kg i.p. + Water-L 10 ml/kg, day 28
[47] = ITE-H 300 mg/kg i.p. + Water-L 10 ml/kg, day 30
[48] = ITE-H 300 mg/kg i.p. + Water-L 10 ml/kg, day 32
[49] = ITE-H 300 mg/kg i.p. + Water-L 10 ml/kg, day 34

Structure (SMILES): COC(=O)c1csc(C(=O)c2c[nH]c3ccccc23)n1 [ITE, 2-(1′H-indole-3′-carbonyl)-thiazole-4-carboxylic acid methyl ester]
- feces appearance (visual) (ITE high (300 mg/kg)): dry
- day at which one mouse died (ITE high dose (300 mg/kg) without oral water administration): 36 days
- feces appearance (visual) (ITE low (200 mg/kg)): dry
- day at which one mouse died (ITE low dose (200 mg/kg) without oral water administration): 28 days
- feces appearance [1]: M
- number of mice that died [1]: 0
- feces appearance [2]: M
- number of mice that died [2]: 0
- feces appearance [3]: D
- number of mice that died [3]: 0
- feces appearance [4]: D
- number of mice that died [4]: 0
- feces appearance [5]: D
- number of mice that died [5]: 0
- feces appearance [6]: D
- number of mice that died [6]: 0
- feces appearance [7]: D
- number of mice that died [7]: 0
- feces appearance [8]: D
- number of mice that died [8]: 0
- feces appearance [9]: D
- number of mice that died [9]: 0
- feces appearance [10]: D
- number of mice that died [10]: 0
- feces appearance [11]: D
- number of mice that died [11]: 0
- feces appearance [12]: D
- number of mice that died [12]: 0
- feces appearance [13]: D
- number of mice that died [13]: 0
- feces appearance [14]: D
- number of mice that died [14]: 0
- feces appearance [15]: D
- number of mice that died [15]: 0
- feces appearance [16]: D
- number of mice that died [16]: 0
- feces appearance [17]: D
- number of mice that died [17]: 1
- feces appearance [18]: M
- number of mice that died [18]: 0
- feces appearance [19]: M
- number of mice that died [19]: 0
- feces appearance [20]: D
- number of mice that died [20]: 0
- feces appearance [21]: D
- number of mice that died [21]: 0
- feces appearance [22]: D
- number of mice that died [22]: 0
- feces appearance [23]: D
- number of mice that died [23]: 0
- feces appearance [24]: D
- number of mice that died [24]: 0
- feces appearance [25]: D
- number of mice that died [25]: 0
- feces appearance [26]: D
- number of mice that died [26]: 0
- feces appearance [27]: D
- number of mice that died [27]: 0
- feces appearance [28]: D
- number of mice that died [28]: 0
- feces appearance [29]: D
- number of mice that died [29]: 0
- feces appearance [30]: M
- number of mice that died [30]: 0
- feces appearance [31]: M
- number of mice that died [31]: 0
- feces appearance [32]: M
- number of mice that died [32]: 0
- feces appearance [33]: M
- number of mice that died [33]: 0
- feces appearance [34]: M
- number of mice that died [34]: 0
- feces appearance [35]: M
- number of mice that died [35]: 0
- feces appearance [36]: D
- number of mice that died [36]: 0
- feces appearance [37]: D
- number of mice that died [37]: 0
- feces appearance [38]: D
- number of mice that died [38]: 0
- feces appearance [39]: D
- number of mice that died [39]: 0
- feces appearance [40]: D
- number of mice that died [40]: 0
- feces appearance [41]: D
- number of mice that died [41]: 0
- feces appearance [42]: D
- number of mice that died [42]: 0
- feces appearance [43]: D
- number of mice that died [43]: 0
- feces appearance [44]: D
- number of mice that died [44]: 0
- feces appearance [45]: D
- number of mice that died [45]: 0
- feces appearance [46]: M
- number of mice that died [46]: 0
- feces appearance [47]: M
- number of mice that died [47]: 0
- feces appearance [48]: M
- number of mice that died [48]: 0
- feces appearance [49]: M
- number of mice that died [49]: 0
